Holding throughout (type): cell-based, human
The subject of series [1] is SAILOR. Put plainly: SAILOR knockdown with shRNA in BT549 cell lines. From the text: (§1) The effect of SAILOR on the growth rate of BT549 cells was studied. SAILOR expression was reduced by ˜80% in BT549 cell lines with a short-hairpin RNA (shRNA), 5′-[…]-3′ (SEQ ID NO:14), which targets SAILOR exon 4 at sequence […] (SEQ ID NO:15) (FIG. 5).
In series [2] the test system is BT549 cells. Put plainly: Growth rate of BT549 cells after SAILOR knockdown.
Description: as §1

For series [3], the system named is SATB1. Put plainly: SATB1 transcription or protein level after SAILOR knockdown. Conditions: BT549 cells.

With “5′-GGTGGAAGAGTAAACTGTTCCCGAAGGAACAGTTTACTCTTCCACC-3′ (expressed or natural sequence) [shRNA]”, the “SAILOR expression reduced (knock down)” value in series [1] was around 80%. The “growth rate of SAILOR knockdown cells” value in series [2] is on record as “slowed growth rate”. In addition, the “effect of reduced SAILOR levels on SATB1 transcription or protein level” value in series [3] was “did not affect”.
